Measurements from patent publication US20100015576A1, “METHOD AND APPARATUS FOR DIAGNOSTIC AND TREATMENT USING HARD TISSUE OR MATERIAL MICROPERFORATION” (RejuveDent LLC, priority 2007, published 2010).

Tests used:
[1] = in 14 hours; 33% hydrogen peroxide on micro-perforations
Method: One freshly extracted lower human incisor was used in the experiment. Immediately after extraction, the tooth was stored in a 0.1% w/w thymol solution at a temperature of +4-6° C. for 3 weeks.

[2] = value used as input for the model calculation, cited from earlier work; for diffusion coefficient, peritubular: peritubular dentine; for diffusion coefficient, tubular: tubular dentine
[3] = In vivo whitening of teeth through laser microperforations

Row | Compound | brown discoloration of the root surface [1] | diffusion coefficient in intertubular dentine [2] | diffusion coefficient, peritubular [2] | diffusion coefficient, tubular [2] | whitening effect (VITA scale) ([3]; Patient 1, 5 days after the procedure, peroxide 105 min at 37° C., 4 laser holes) | whitening effect (VITA scale) ([3]; Patient 1, 7 days after the procedure, peroxide 105 min at 37° C., 4 laser holes) | whitening effect (VITA scale) ([3]; Patients 2 and 3, 1 day after the procedure, peroxide 70 min / 45 min at 37° C.) | adverse effects on the oral mucosa ([3]; three patients) | pulp vitality (follow-up histopathology) ([3]; treated teeth, after extraction)
1 | OO [hydrogen peroxide] | completely bleached | 3.6×10^−7 cm^2/sec | 3.6×10^−8 cm^2/sec | 3.6×10^−6 cm^2/sec | one shade | one more shade | two shades (A3 to A1) | didn't observe any adverse effects | confirmed the vitality of the pulp
2 | O [water] | – | 1.74×10^−6 cm^2/sec | 1.74×10^−7 cm^2/sec | 1.74×10^−5 cm^2/sec | – | – | – | – | –
